Laboratory results from PubChem BioAssay (NCI).
Where “and” joins values, the source holds several entries; their conditions need not be identical. Equal values may be shown once.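 Values below derive from 48-hour exposures of cells grown in 96-well plates, with endpoints linearly interpolated between the two concentrations bracketing the appropriate inhibition level. Abbreviation: GI50, concentration required for 50% inhibition of growth. TGI marks complete inhibition of growth.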

Experiments:
Assay in all cases: inhibition of tumour cell growth, NCI panel, 48 h
NCI-H226 lung = tested on: NCI-H226 lung
HL-60(TB) leukemia = tested on: HL-60(TB) leukemia
HCC-2998 colon = tested on: HCC-2998 colon
KM12 colon = tested on: KM12 colon
RXF 393 renal = tested on: RXF 393 renal
786-0 renal = tested on: 786-0 renal
MALME-3M melanoma = tested on: MALME-3M melanoma
CCRF-CEM leukemia = tested on: CCRF-CEM leukemia
U251 CNS = tested on: U251 CNS
SF-539 CNS = tested on: SF-539 CNS

Row | SMILES | GI50 (NCI-H226 lung) [µM] | TGI (NCI-H226 lung) [µM] | GI50 (HL-60(TB) leukemia) [µM] | TGI (HL-60(TB) leukemia) [µM] | GI50 (HCC-2998 colon) [µM] | TGI (HCC-2998 colon) [µM] | GI50 (KM12 colon) [µM] | TGI (KM12 colon) [µM] | GI50 (RXF 393 renal) [µM] | TGI (RXF 393 renal) | GI50 (786-0 renal) [µM] | TGI (786-0 renal) [µM] | GI50 (MALME-3M melanoma) [µM] | TGI (MALME-3M melanoma) | GI50 (CCRF-CEM leukemia) [µM] | TGI (CCRF-CEM leukemia) [µM] | GI50 (U251 CNS) [µM] | TGI (U251 CNS) [µM] | GI50 (SF-539 CNS) [µM] | TGI (SF-539 CNS) [µM]
1 | COc1ccc(C2=NN(c3ccc(S(N)(=O)=O)cc3)C(c3ccc(Cl)cc3)C2)c(O)c1 (centres undefined) | 5.6 | 19.3 | 1.86 | 4.99 | 2.62 | 5.37 | 2.67 | 7.91 | 2.53 | 9.78 µM | 2.22 | 5.15 | 4.03 | 16.7 µM | 2.39 | 6.92 | 4.47 | 21.2 | 10.1 | 22.3
2 | COC(=O)CC(CC(=O)C(=O)OC)C(=O)OC (centres undefined) |  | > 100 |  | > 100 |  | > 100 |  | > 100 |  | > 100 µM |  | > 100 |  | > 100 µM |  | > 100 |  | > 100 |  | > 100
3 | CCOc1ccc(NC(=O)/C(=C/c2ccccc2)C(C)=O)cc1 |  | 32.4 |  | 9.66 |  | 27.1 |  | 27.5 |  | 19 µM |  | 24.8 |  | 31.6 µM |  | 10.5 |  | 28.5 |  | 23.3
4 | O=C1c2cccnc2-c2nc(-c3ccccc3)cc3c2c1nc1ccccc13 | 9.39 | 24.1 | 1.12 | 3.01 | 4.95 | 18.5 | 4.61 | 16.1 | 16 | 32.3 µM | 5.88 | 20.1 | 3.38 | 16.1 µM | 2.98 | 29.7 | 4.09 | 19.6 | 17.8 | 43.3
5 | COc1cc(-c2cn(-c3ccc(Cl)cc3)c(=O)n2-c2ccccc2)cc(OC)c1OC | 82.1 | > 100 | 3.35 | > 38.5 | > 56.3 | > 100 | > 69.9 | > 100 | 25.4 | > 81.9 µM | > 83.1 | > 100 | > 49.8 | > 94.9 µM | > 100 | > 100 | 33.7 | > 100 | 61.5 | > 100
6 | c1ccc(COc2ccc(Nc3ncnc4ccc(-c5ccco5)cc34)cc2)cc1 | 5.73 | > 21.5 | 7.03 | 19.2 | 10.6 | > 25 | 6.09 | 14.7 | 3.4 | 8.61 µM | 4.91 | 12.9 | 6.04 | > 21.1 µM | 7.76 | > 25 | 6.99 | > 25 | 8.83 | > 25
7 | Cc1ccc2c(c1)/C(=N\N=C/c1cn(C(C)C)c3ccccc13)C(=O)N2 | 2.67 | > 100 | 1.95 | 6.17 | 2.42 | 14.9 | 5.5 | > 100 | 4.31 | > 100 µM | 18.6 | > 100 | 1.38 | 9.81 µM | 0.367 | > 100 | 3.9 | > 100 | 2.9 | > 100
8 | CC1OC(OC2C(OC3CCC4(C)C(CCC5(C)C4CC=C4C6CC(C)(C)CCC6(CO)C(O)CC45C)C3(C)C)OC(C(=O)O)C(OC3OC(COC4OC(CO)C(O)C(O)C4O)C(O)C(O)C3O)C2O)C(O)C(O)C1O (centres undefined) | 3.35 | 16.1 | 1.5 | 3.53 | 1.73 | 4.45 | 3.25 | 14.1 | 8.94 | 19.8 µM | 1.15 | 3.01 | 7.58 | 18.8 µM | 3.88 | 20.7 | 10.2 | 22.1 | 8.48 | 20.5
9 | c1ccc(CNc2nc(Nc3ccc(-c4nc5ccccc5[nH]4)cc3)c3cn[nH]c3n2)cc1 | 2.98 | 8.43 | 2.54 | 7.44 | 1.91 | 3.78 | 1.9 | 4.87 | 1.57 | 3.65 µM | 1.77 | 3.73 | 1.81 | 3.8 µM | 3.62 | > 100 | 2.27 | 5.85 | 2 | 5.19
10 | O=C(O)Cc1ccccc1 | > 1000 | > 2000 | > 1000 | > 1000 | > 1000 | > 2000 | > 1000 | > 2000 | > 1000 | > 1000 µM and 1940 µM |  | > 2000 | > 1000 | > 1000 µM and 1970 µM | > 1000 | > 2000 | > 1000 | > 2000 | > 1000 | > 2000
11 | Oc1ccc(-c2nc(-c3ccc(F)cc3)c(-c3ccncc3)[nH]2)cc1 | 28.3 | > 100 | 18.1 | 67.1 | 36.7 | > 100 | 23 | 72.3 | 8.92 | 43.2 µM | 12.5 | > 100 | 2.45 | 9.13 µM | 9.62 | 59.8 | 25.5 | > 100 | 25.7 | > 100
12 | COc1cc2nc(-c3ccc(Cl)cc3)cc(OCCCN3CCC(O)CC3)c2cc1OC | 1.39 | 3.62 | 4.27 | 18.7 | 1.95 | 5.93 | 3.13 | 13.6 | 1.22 | 4.07 µM | 3.31 | 14.9 | 1.89 | 4.95 µM | 2.65 | 10.4 | 2.81 | 22.5 | 2.28 | 6.78
13 | COc1ccccc1NS(=O)(=O)c1cc(C(C)(C)C)ccc1OCCOc1ccc(C(C)(C)C)cc1S(=O)(=O)Nc1ccccc1OC |  | > 100 |  | > 100 |  | > 100 |  | > 100 |  | > 100 µM |  | > 100 |  | > 100 µM |  | > 100 |  | > 100 |  | > 100
